Measured values reported in PubChem BioAssay AID179 (DTP/NCI, 2004).
pEC50, pIC50: −log10 of the molar value. The source made the active and inactive calls.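 How the source made its calls: active means compounds giving half or more protection of infected cells from virus-caused growth loss, again on retest; inactive means the rest.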

Tested on: CEM cells HIV-1 protection, formazan growth assay
Assay: NCI AIDS Antiviral Assay
Conditions: for pIC50: measured here: growth of uninfected CEM cells
Summary of the method: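 Five concentrations of each compound were applied to infected and uninfected human CEM cells. Protection from HIV-1 was judged from growth measured with a soluble formazan assay.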

With `Cc1csc2n(C)c(=O)c3ccccc3[n+]12` the pEC50 was 3.72 and the pIC50 was < 3.70.

In the case of `N#CC(C(=O)/C(=N/N)C(C#N)c1ccccc1)c1ccccc1` (stereo not drawn), the pEC50 was < 3.51 and the pIC50 was < 3.51.

`Cc1cc(Cl)c2c(c1)C(=O)/C(=C/c1ccc(Cl)cc1)O2` was tested, and the pEC50 was < 3.70 and the pIC50 was 4.80.

`COC(=O)c1cc(C(CCl)c2cc(C(=O)OC)c(OC)c(Br)c2C)c(C)c(Br)c1OC` was tested, and the pEC50 was < 3.70 and the pIC50 was 5.06.

For `COc1ccc2[nH]c3c(C)c4ccnc(NCCCN(C)CCCNC(=O)NCCCN(C)CCCNc5nccc6c(C)c7[nH]c8ccc(OC)cc8c7c(C)c56)c4c(C)c3c2c1`, the pEC50 was < 5.30 and the pIC50 was 6.05.

For `CC(C)=CCC[C@@H](C)C1=C(O)C(Nc2ccccc2Br)=C(C)C(=O)C1=O`, the pEC50 was < 4.00 and the pIC50 was 5.09.

For `Cc1ccccc1SSc1ccccc1C`, the outcome was “inactive”.

In the case of `Nc1cc(N)c(N)cc1N`, the pEC50 was < 3.70 and the pIC50 was 4.42.

`CCN(CC)C1Oc2cc3c(cc2C(c2cccc(OC)c2O)C1C)OCO3` (stereo not drawn) was tested, and the pEC50 was < 3.70 and the pIC50 was 5.42.

With `Cc1c(C)n(-c2ccccc2)c2nc(S(C)(=O)=O)nc(S(C)(=O)=O)c12` the pEC50 was < 3.70 and the pIC50 was 6.54.

In the case of `N.N.N.N.[Co+3].[O-][Cl+3]([O-])([O-])[O-].[OH3+].[OH3+]`, the outcome was “inactive”.

In the case of `COc1ccc2nc3cccc([N+](=O)[O-])c3c(NCCN(C)C)c2c1`, the pEC50 was < 5.70 and the pIC50 was 7.01.

In the case of `COc1ccc(C(=O)C(C(=O)C(=O)NCCCNC(=O)C(=O)C(C(=O)c2ccc(OC)cc2)c2ccc(OC)cc2)c2ccc(OC)cc2)cc1` (stereo not drawn), the outcome was “inactive”.

With `CC1(c2nc3cc(Cl)c(Cl)cc3[nH]2)CCC(CO)C(C)(C)O1` (stereo not drawn) the outcome was “inactive”.

In the case of `CC(=O)NCCSSCCCCSSCCNC(C)=O`, the pEC50 was < 3.70 and the pIC50 was 4.02.

`CC(C)=CCC/C(C)=C/Cc1cc(O)c(Br)cc1O` was tested, and the pEC50 was < 3.84 and the pIC50 was 4.62.

`COc1ccc(/C=C(\C#N)c2ccccc2)cc1` was tested, and the pEC50 was < 5.07 and the pIC50 was 5.20.

For `CSC(=S)N(C)c1nc(=[N+](C)C)ss1`, the outcome was “inactive”.

With `CCC1CCc2c(c(=O)oc3c2cc(OC)c2cccc(OC)c23)C1` (stereo not drawn) the pEC50 was < 3.96 and the pIC50 was 4.06.

`CCOC(=O)C(NC(=O)CC)(Nc1ccc(S(=O)(=O)Nc2nc(C)cc(C)n2)cc1)C(F)(F)F` (stereo not drawn) was tested, and the pEC50 was < 3.70 and the pIC50 was < 3.70.

`COc1ccc2nc3ccc(OC)cc3c(S(=O)Cc3ccc([N+](=O)[O-])cc3)c2c1` (stereo not drawn) was tested, and the pEC50 was < 3.70 and the pIC50 was 5.49.

For `CSc1nc2c(c(=O)n1C)N=C(c1ccc([N+](=O)[O-])cc1)CC(c1ccccc1)N2` (stereo not drawn), the pEC50 was < 3.70 and the pIC50 was 3.81.

For `O=C1C=C(N2CC2)C(=O)C(N2CC2)=C1N1CC1`, the pEC50 was < 4.97 and the pIC50 was 7.49.

`O=C(N/C(=C\c1ccccc1)c1nc2ccccc2c(=O)o1)c1ccccc1` was tested, and the pEC50 was < 3.70 and the pIC50 was < 3.70.

For `CC1C[P+](c2ccccc2)(c2ccccc2)Cc2ccccc21` (stereo not drawn), the pEC50 was < 3.15 and the pIC50 was 5.59.

For `CN(c1ccccc1)c1nc(=[N+]2CCCC2)ss1`, the outcome was “inactive”.

In the case of `COc1ccc(OCC(=O)O)c2c1CCC(C)C2=O` (stereo not drawn), the outcome was “inactive”.

With `C[N+]12C(=O)CC3OCC=C4C[N+]5(C)CCC6(c7ccccc71)C2C3C4CC65O` (stereo not drawn) the pEC50 was < 3.40 and the pIC50 was 3.65.

With `CC(NC1=NCCO1)c1cccc([N+](=O)[O-])c1` (stereo not drawn) the pEC50 was < 3.70 and the pIC50 was < 3.70.

`O=C1c2cscc2C(=O)c2sccc21` was tested, and the pEC50 was < 3.70 and the pIC50 was 4.63.

`Cc1cc(N(CCC#N)CCC#N)ccc1/C=C(\NC(=O)/C=C/c1ccccc1)C(=O)NN` was tested, and the outcome was “inactive”.

`N#Cc1c(O)c(N=Nc2ccccc2F)c(=O)n2c1[nH]c1ccccc12` was tested, and the pEC50 was < 3.70 and the pIC50 was 4.73.

For `COC(=O)c1ccc2c(c1)CC1(C2)Cc2cc3c(cc2C1=O)CCC3` (stereo not drawn), the pEC50 was < 3.70 and the pIC50 was 4.70.

For `CSc1nc(C)c(CCOC(C)=O)c(Cl)n1`, the pEC50 was < 3.70 and the pIC50 was < 3.70.

In the case of `O=S1(=O)C/C(=C\N2CCOCC2)c2ccccc21`, the pEC50 was < 3.70 and the pIC50 was < 3.70.

In the case of `COc1ccc2[nH]c(C[P+](c3ccccc3)(c3ccccc3)c3ccccc3)cc2c1`, the pEC50 was < 3.70 and the pIC50 was 4.92.

With `C=CCn1c(=O)c(C(=O)Nc2nc(C34CC5CC(CC(C5)C3)C4)cs2)c(O)c2ccccc21` the pEC50 was < 3.70 and the pIC50 was 4.11.

`CCOC(=O)C(NC(=O)CC)(Nc1ccc(F)cc1F)C(F)(F)F` (stereo not drawn) was tested, and the pEC50 was < 3.70 and the pIC50 was < 3.70.

In the case of `CC(C)C1NC(=O)[C@H](C)OC(=O)[C@@H](C(C)C)NC(=O)[C@@H](C)OC(=O)C(C(C)C)NC(=O)[C@H](C)OC1=O` (stereo partly drawn), the pEC50 was < 3.60 and the pIC50 was < 3.60.

In the case of `CCCOC(=O)C1OC12CCCCC2` (stereo not drawn), the pEC50 was < 3.70 and the pIC50 was < 3.70.

In the case of `COc1ccc(C(=O)N2CCN(c3ccc4[nH]c(=O)oc4c3)CC2)cc1`, the pEC50 was < 3.70 and the pIC50 was < 3.70.

`Cc1cc(C)nc(NS(=O)(=O)c2ccc(NN=c3c4ccccc4n(C)c4ccccc34)cc2)n1` was tested, and the pEC50 was < 3.70 and the pIC50 was 4.95.

In the case of `CC(C)(C)OC(=O)NC(Cc1ccccc1)C(=S)N1CCCC1` (stereo not drawn), the pEC50 was 4.25 and the pIC50 was 3.85.

In the case of `S=C1C(=Nc2ccccc2)N(c2ccccc2)/C(=N\c2ccccn2)N1c1ccccc1`, the pEC50 was < 3.70 and the pIC50 was 5.20.

In the case of `Cc1ccc2c(c1)C(C1Cc3c(C)cccc3C1=O)OC2=O` (stereo not drawn), the pEC50 was < 3.70 and the pIC50 was < 3.70.

`Cc1ccc(NC(=O)CC/C(CC(=O)c2ccc(F)cc2)=N\NC(=O)C(=O)NN)cc1C` was tested, and the pEC50 was < 4.93 and the pIC50 was < 4.93.

With `O=C(CCc1n[nH]c(=S)o1)Nc1cc(Cl)ccc1Cl` the pEC50 was < 3.95 and the pIC50 was < 3.95.

With `CC(C)(C)C=C=C(C(C)(C)C)P(=O)(O)O` the pEC50 was < 3.70 and the pIC50 was < 3.70.

For `O=C(Nc1nccs1)c1c(O)nc2sccn2c1=O`, the pEC50 was < 3.70 and the pIC50 was < 3.70.

With `CCOC(=O)c1cc(C(=O)OCC)c2ccccn2c1=O` the pEC50 was < 4.00 and the pIC50 was 4.36.

For `COC=C(c1cc(Br)c(OC)c(C(=O)OC)c1)c1cc(Br)c(OC)c(C(=O)OC)c1`, the pEC50 was < 3.70 and the pIC50 was 4.87.

In the case of `COC(=O)C1C(=O)C(C(=O)OC)C2(C)C(C(=O)OC)C(=O)C(C(=O)OC)C12C` (stereo not drawn), the pEC50 was < 4.05 and the pIC50 was 4.09.

In the case of `N#Cc1c(N)n(-c2cccc(C(=O)O)c2)c(=O)c2cc([N+](=O)[O-])ccc12`, the pEC50 was < 3.70 and the pIC50 was < 3.70.

In the case of `CN(C)CCC(/C=C/c1ccccc1)=N\Nc1ccccc1`, the outcome was “inactive”.

In the case of `COCn1c(C)c(C)c2c(=O)oc(=O)[nH]c21`, the pEC50 was < 3.70 and the pIC50 was < 3.70.

`Cc1cc(C(=O)Nc2ccc(NC3=NCCN3)cc2)c(C)cc1C(=O)Nc1ccc(NC2=NCCN2)cc1` was tested, and the pEC50 was < 3.70 and the pIC50 was 4.69.

With `Nc1ccc(C(=O)N/C(=C\c2cccc([N+](=O)[O-])c2)c2nc3[nH]c(=S)[nH]c(=O)c3[nH]2)cc1` the outcome was “inactive”.

With `CC1CCSC(N(C(=O)N(C)c2ccccc2)c2ccccc2)=N1` (stereo not drawn) the pEC50 was < 3.13 and the pIC50 was 3.14.

For `CCn1c2ccccc2c2c(-c3ccccc3)cc3c(c21)C(=O)N(c1ccccc1)C3=O`, the pEC50 was < 5.18 and the pIC50 was < 5.18.

`CCCCCCOC(=O)c1[nH]c(=O)n(CCCCCC)c(=O)c1N` was tested, and the pEC50 was < 3.70 and the pIC50 was 3.82.

For `CC1=N/C(=C\c2ccc(F)cc2)C(=O)O1`, the pEC50 was < 4.60 and the pIC50 was < 4.60.

With `CC(C)(C)OC(=O)NC1CCCC1C(O)(C1=CCCC1)C1=CCCC1` (stereo not drawn) the pEC50 was < 3.70 and the pIC50 was 3.92.

`NC(=O)c1nnn(Cc2ccccc2)c1N` was tested, and the pEC50 was < 3.70 and the pIC50 was < 3.70.

With `Cc1cc(=O)oc2cc(SC(=O)N(C)C)ccc12` the pEC50 was < 3.70 and the pIC50 was < 3.70.

In the case of `OC1CCN(Cc2ccccc2)C[C@@H]1CNC12CC3CC(CC(C3)C1)C2` (stereo partly drawn), the pEC50 was < 4.00 and the pIC50 was 4.03.

In the case of `CCCCCCCCCCCCOC1OC(COC(C)=O)C(OC(C)=O)C(OC(C)=O)C1OC(C)=O` (stereo not drawn) (tested in a mixture with another compound), the pEC50 was < 4.42 and the pIC50 was 4.62.

For `O=C(O)CN1C(=O)CN=C(c2ccccn2)c2cc(Cl)ccc21`, the pEC50 was < 3.12 and the pIC50 was < 3.12.

In the case of `Cc1ccc2c(c1)C(=O)CC=C(C(=O)O)N2`, the pEC50 was < 3.70 and the pIC50 was < 3.70.

With `O=C(NCCCCCCNC(=O)c1ccccn1)c1ccccn1` the pEC50 was < 3.70 and the pIC50 was 3.72.

`CCOC(=O)N1N(c2ccccc2)C(=O)C1(c1ccccc1)c1ccccc1` was tested, and the pEC50 was < 3.70 and the pIC50 was 3.87.

In the case of `O=C(O)CCC12CC[C@]3(O)OC(=O)[C@H](C[C@@H]1C(=O)O)C23` (stereo partly drawn), the outcome was “inactive”.

In the case of `CCC(C)(O)c1cn(-c2cccc(S(=O)(=O)O)c2)nn1` (stereo not drawn), the pEC50 was < 3.38 and the pIC50 was < 3.38.

With `COC(=O)C(Cc1ccc(N(C)C)cc1)(NC(=O)c1ccccc1)P(=O)(OC)OC` (stereo not drawn) the pEC50 was < 3.38 and the pIC50 was 3.40.

With `CCOC(=O)C1S/C(=N\C(=N)N[N+](=O)[O-])N=C1C` (stereo not drawn) the outcome was “inactive”.

With `O=C(NC/C(Cl)=C/Cl)Nc1c2ccccc2nc2ccccc12` the pEC50 was < 3.70 and the pIC50 was 4.66.

With `CCOC(=O)CC(O)(c1ccccc1)c1ccccc1` the pEC50 was < 5.00 and the pIC50 was < 5.00.

With `CC(=O)Nc1ccc(/C=C/C(=O)c2sc(C(N)=S)nc2C)cc1` the pEC50 was < 4.12 and the pIC50 was < 4.12.

For `NC(=O)C(N)c1ccccc1` (stereo not drawn), the pEC50 was < 3.70 and the pIC50 was < 3.70.

`O=C(Nc1cc(Cl)c(Cl)cc1Cl)C(=O)C(C(=O)c1ccc2ccccc2c1)C1OC(=O)c2ccccc21` (stereo not drawn) was tested, and the pEC50 was < 4.19 and the pIC50 was 4.50.

`O=C(O)C1C2CCC(O2)C1C(=O)O` (stereo not drawn) was tested, and the pEC50 was < 2.87 and the pIC50 was < 2.87.

In the case of `O=S(Cc1ccccc1)c1nc2ccccc2nc1-c1cccs1` (stereo not drawn), the pEC50 was < 4.13 and the pIC50 was 4.87.

With `O=C1NC(=S)NC(=O)C1=Cc1ccc(Cl)c(Cl)c1` the pEC50 was < 4.06 and the pIC50 was < 4.06.

For `CN(CCC#N)C1=CCCC1`, the pEC50 was < 3.70 and the pIC50 was < 3.70.

With `CCCCCOCC(=O)OC` the pEC50 was < 3.70 and the pIC50 was 3.95.

For `Clc1ccc2c(c1)-c1c3c(nn1-c1ccccc1)-c1ccccc1SC3O2` (stereo not drawn), the pEC50 was < 4.87 and the pIC50 was < 4.87.

In the case of `Cn1nc(N)nc1N=S(C)(C)=N`, the pEC50 was < 2.88 and the pIC50 was < 2.88.

In the case of `N#C/C(=C/N1C(=O)CC(=O)NC1=S)c1cccc(Cl)c1`, the pEC50 was 3.74 and the pIC50 was < 3.70.

For `CCOC(=N)CCCSSc1ccc(N=[N+]=[N-])cc1`, the pEC50 was < 3.70 and the pIC50 was 4.59.

`C=C(C)C(=Nc1ccc(Cl)c(Cl)c1)N(C)C` was tested, and the outcome was “inactive”.

With `CC12CCC(C)(c3cc(O)c(O)cc31)c1cc(O)c(O)cc12` the outcome was “inactive”.

`CN(C)c1cc(CNCCS)nc(CNCCS)c1` was tested, and the pEC50 was < 3.70 and the pIC50 was 5.46.
